Laboratory results from patent US7053228B2, “Sulfur analogues of 21-hydroxy-6,19-oxidoprogesterone (21OH-6OP) for treating excess of glucocorticoids” (Applied Research Systems ARS Holding N.V., priority 2000, dated 2006).

What was measured:
[1] = test system: rat thymocytes; assay: Apoptosis in rat thymocytes (annexin V-FITC/propidium iodide flow cytometry); type: cell-based; settings: early + late apoptosis
Protocol: On this basis, the antiglucocorticoid properties of the compounds of the present invention may be determined by examining the decrease/increase of apoptosis in rat thymocytes after treatment with a given test compounds. Regulation of apoptosis was analyzed by flow cytometry. The method consists of quantifying fluorometrically the apoptotic cells in the sample. In normal viable cells phosphatidyl serine (PS) is located on the cytoplasmic surface of the cell membrane. Upon induction of apoptosis, rapid alteration in the organization of phospholipids in most cell types occurs leading to exposure of PS on the cell surface. In vitro detection of externalized PS may be achieved through interaction with the anticoagulant annexin V. In the presence of calcium, rapid high affinity binding of annexin V to PS occurs. PS translocation to the cell surface precedes nuclear breakdown, DNA fragmentation and the appearance of most apoptosis-associated molecules making annexin V binding a marker of early-stage apoptosis. In the assay used, a fluorescein isothiocyanate (FITC) conjugate of annexin V is used allowing detection of apoptosis by flow cytometry. Since membrane permeabilization is observed in necrosis, necrotic cells will also bind annexin V-FITC. Propidium iodide is used to distinguish between viable and early apoptotic cells thus the latter will be labeled only with FITC while late apoptotic cells will be labeled with FITC and propidium iodide. An annexin V-FITC apoptosis detection kit from Oncogen Research Products (cat. No. PF032) was used following the RAPID protocol recommended by the manufacturer. Briefly, after incubation with various compounds (see below), cells were centrifuged at 2000 rpm for 5 min, the media removed and cell pellets washed with phosphate buffered saline (PBS): Cells were resuspended in the binding buffer to a density of 1×10^6 cells/ml. Binding reagent (10 μl) and annexin V/FITC (1.25 μl) were added and cells incubated for 15 min at room temperature in the dark. The cells were centrifuged and to the pellet were added binding buffer (0.5 ml) and propidium iodide (10 μl). Samples were analyzed by flow cytometry in a Cytoron Absolute cytometer (Ortho Diagnostic Systems). […] The cytograms obtained are presented in FIGS. 3a-3f, where GR-FL represents fluorescence from FITC and RD-FL represents fluorescence from propidium iodide. […] Early apoptotic cells with exposed PS but intact cell membranes appear in the […] quadrant. Necrotic or late apoptotic cells appear in the upper right quadrant. A small percentage of normal cell death may also occur, none is observed in this case.

[2] = target: T1, glucocorticoid receptor (Homo sapiens, UniProt P04150); assay: Reporter gene assay pMMTV-Luc expression in Cos-1 line; type: cell-based; settings: test compound 10^−6 M with dexamethasone; Cos-1 cells transfected with pMMTV-Luc and pRSV-GR
T1 construct: expressed in transfected cells; host or cells: Cos-1
T1 sequence (P04150 1-777): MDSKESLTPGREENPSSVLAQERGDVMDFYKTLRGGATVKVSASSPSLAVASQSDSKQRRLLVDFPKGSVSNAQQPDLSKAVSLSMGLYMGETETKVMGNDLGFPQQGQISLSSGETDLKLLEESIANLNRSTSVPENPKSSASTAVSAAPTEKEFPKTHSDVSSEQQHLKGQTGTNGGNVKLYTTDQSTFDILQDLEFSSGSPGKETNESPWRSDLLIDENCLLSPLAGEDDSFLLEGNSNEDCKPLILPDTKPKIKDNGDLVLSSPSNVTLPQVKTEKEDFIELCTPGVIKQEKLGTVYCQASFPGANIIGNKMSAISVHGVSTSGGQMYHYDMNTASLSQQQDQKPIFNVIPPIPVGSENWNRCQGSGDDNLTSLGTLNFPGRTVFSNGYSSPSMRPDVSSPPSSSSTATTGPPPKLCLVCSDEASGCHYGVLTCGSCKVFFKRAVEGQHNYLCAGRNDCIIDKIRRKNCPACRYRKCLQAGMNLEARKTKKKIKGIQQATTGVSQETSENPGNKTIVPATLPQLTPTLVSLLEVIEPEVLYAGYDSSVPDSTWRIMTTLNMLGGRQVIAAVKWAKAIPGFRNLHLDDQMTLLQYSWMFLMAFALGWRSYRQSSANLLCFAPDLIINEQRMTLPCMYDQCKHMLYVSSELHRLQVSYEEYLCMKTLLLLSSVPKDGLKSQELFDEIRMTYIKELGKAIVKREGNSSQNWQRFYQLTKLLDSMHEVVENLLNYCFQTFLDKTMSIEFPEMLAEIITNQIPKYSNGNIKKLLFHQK
Protocol: vol. 7 No. 10 (1989). The assay may discriminate between gluco/antigluco- and progestin/antiprogestin-effects of the test compounds. Cells were grown on 100 mm plates with 8 ml D-MEM (Dubecco's modified Eagle's medium Gibco BRL), supplemented with 10% bovine fetal serum (Bioser), 3,7 g/l sodium bicarbonate and 100 IU/penicilin G, 100 μg/ml streptomycin, 0,25 μg amphotericin B in an atmosphere in an of 5% CO2 at 37° C. Cells were treated with 0,25% trypsin, 1 mM EDTA and were plated at a density of 5×10^5 cells/plate, in 60 mm plates. Cos-1 cells were transfected with a construct encoding the glucocorticoid receptor, and a construct with the luciferase gene under the MMTV promoter. Cells were transfected by precipitation with calcium phosphate adding 25 μl of a 2M CaCl2 solution to a solution containing 3 pmoles of vectors pMMTV-Luc and pRSV-GR encoding luciferase and the glucocorticoid receptor, respectively. […]
The transfection mixture was added dropwise to an equal volume of transfection buffer 2×BBS, containing phosphate. […] From the supernatant the luciferase activity was determined. […] Luciferase expression was assayed employing a Promega kit in partial obscurity and measured with a Junior luminometer (EG&G Berthold, Germany).
β Galactosidase was determined by hydrolysis of a phenyl galactoside. […]

[3] = target: T2, uterus-PR (Homo sapiens, UniProt P06401); settings: cited from earlier work
T2 construct: host or cells: uterus
T2 sequence (P06401 1-933): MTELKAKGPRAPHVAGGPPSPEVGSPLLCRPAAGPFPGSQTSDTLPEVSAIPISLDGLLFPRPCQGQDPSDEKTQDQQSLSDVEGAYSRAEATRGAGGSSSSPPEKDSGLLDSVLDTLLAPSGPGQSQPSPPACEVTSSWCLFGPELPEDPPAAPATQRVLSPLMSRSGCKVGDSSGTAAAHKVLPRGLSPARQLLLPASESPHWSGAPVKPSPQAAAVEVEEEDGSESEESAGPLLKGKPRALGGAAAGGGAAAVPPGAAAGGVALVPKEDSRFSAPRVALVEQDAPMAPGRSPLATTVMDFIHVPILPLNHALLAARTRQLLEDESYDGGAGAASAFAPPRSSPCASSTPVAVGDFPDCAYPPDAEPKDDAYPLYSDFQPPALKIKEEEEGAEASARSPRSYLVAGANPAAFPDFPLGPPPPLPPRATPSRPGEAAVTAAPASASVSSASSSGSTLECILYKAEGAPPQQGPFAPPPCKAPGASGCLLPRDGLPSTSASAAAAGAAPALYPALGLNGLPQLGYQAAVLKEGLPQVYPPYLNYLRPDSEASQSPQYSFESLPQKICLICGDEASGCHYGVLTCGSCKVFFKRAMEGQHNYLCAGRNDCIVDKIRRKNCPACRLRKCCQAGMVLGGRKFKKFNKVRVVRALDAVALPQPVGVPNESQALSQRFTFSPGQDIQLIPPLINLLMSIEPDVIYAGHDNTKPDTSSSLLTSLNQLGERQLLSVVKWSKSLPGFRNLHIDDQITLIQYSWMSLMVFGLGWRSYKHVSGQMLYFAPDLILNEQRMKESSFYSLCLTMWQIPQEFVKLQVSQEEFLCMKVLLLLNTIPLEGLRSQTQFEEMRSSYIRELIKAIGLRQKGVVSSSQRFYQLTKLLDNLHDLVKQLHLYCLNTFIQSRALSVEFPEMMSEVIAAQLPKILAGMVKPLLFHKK

[4] = target: T3, kidney-MR (Homo sapiens, UniProt P08235); settings: cited from earlier work
T3 construct: host or cells: kidney
T3 sequence (P08235 1-984): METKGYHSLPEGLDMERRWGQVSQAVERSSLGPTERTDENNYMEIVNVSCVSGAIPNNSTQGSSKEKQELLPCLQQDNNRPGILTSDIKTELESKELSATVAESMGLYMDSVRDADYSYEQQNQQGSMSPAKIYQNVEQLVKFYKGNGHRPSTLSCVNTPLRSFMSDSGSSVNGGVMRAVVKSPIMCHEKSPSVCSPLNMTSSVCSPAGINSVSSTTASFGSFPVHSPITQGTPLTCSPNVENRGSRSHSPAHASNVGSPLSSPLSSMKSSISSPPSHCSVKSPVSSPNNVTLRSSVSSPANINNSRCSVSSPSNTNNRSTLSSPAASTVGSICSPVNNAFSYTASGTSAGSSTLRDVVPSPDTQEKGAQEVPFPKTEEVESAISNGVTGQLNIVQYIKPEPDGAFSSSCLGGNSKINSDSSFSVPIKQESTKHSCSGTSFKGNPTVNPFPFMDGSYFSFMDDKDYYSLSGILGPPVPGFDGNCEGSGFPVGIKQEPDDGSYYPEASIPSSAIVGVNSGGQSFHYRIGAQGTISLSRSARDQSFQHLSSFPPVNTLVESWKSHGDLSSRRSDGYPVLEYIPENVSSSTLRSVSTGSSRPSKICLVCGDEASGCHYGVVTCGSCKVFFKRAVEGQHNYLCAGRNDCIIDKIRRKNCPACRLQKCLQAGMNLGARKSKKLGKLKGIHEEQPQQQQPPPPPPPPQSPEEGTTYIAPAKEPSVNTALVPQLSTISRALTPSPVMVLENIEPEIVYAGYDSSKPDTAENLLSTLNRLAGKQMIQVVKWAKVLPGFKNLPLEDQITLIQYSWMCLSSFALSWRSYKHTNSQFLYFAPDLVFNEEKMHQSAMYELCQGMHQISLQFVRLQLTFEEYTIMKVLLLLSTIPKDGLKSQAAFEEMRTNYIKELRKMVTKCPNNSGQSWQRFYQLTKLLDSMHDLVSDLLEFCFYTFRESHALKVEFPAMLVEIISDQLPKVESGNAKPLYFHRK

[5] = Dexamethasone 10^−8 M + test compound 10^−5 M, 4 h at 37° C.

With `C[C@]12CCC3C(C[C@H]4SC[C@@]35CCC(=O)C=C45)C1CCC2C(=O)CO` (stereo partly drawn) [Compound 3, 21-Hydroxy-6,19-sulfanyl-4-pregnene-3,20-dione] the “% total apoptosis” value [1, 5] was 37.50%.
In the case of `C[C@]12CCC3C(C[C@@H]4C5=CC(=O)CC[C@@]53C[S+]4[O-])C1CCC2C(=O)CO` (stereo partly drawn) [Compound 4, 21-Hydroxy-6,19-sulfoxy-4-pregnene-3,20-dione], the “% total apoptosis” value [1, 5] was 34.60% and the “reduction of the luciferase/β galactosidase ratio” value [2] was “about 65%”.
With `C[C@]12CCC3C(C[C@@H]4C5=CC(=O)CC[C@@]53CS4(=O)=O)C1CCC2C(=O)CO` (stereo partly drawn) [Compound 5, 21-Hydroxy-6,19-sulfone-4-pregnene-3,20-dione] the “% total apoptosis” value [1, 5] was 31.40%.
In the case of `C[C@]12CCC3C(C[C@H]4OC[C@@]35CCC(=O)C=C45)C1CCC2C(=O)CO` (stereo partly drawn) [Compound 21OH-6OP, 21-hydroxy-6,19-oxidoprogesterone], the “cross-reaction with uterus-PR” value [3] is listed as “does not substantially cross-react”, the “cross-reaction with kidney-MR” value [4] is listed as “does not substantially cross-react” and the “% total apoptosis” value [1, 5] is listed as 38.10%.
In the case of `C[C@@H]1C[C@H]2[C@@H]3CCC4=CC(=O)C=C[C@]4(C)[C@@]3(F)[C@@H](O)C[C@]2(C)[C@@]1(O)C(=O)CO` [Dexamethasone], the “% total apoptosis” value ([1]; Dexamethasone 10^−8 M alone, thymocytes 4 h at 37° C.) was 40.40%.
With `CC#C[C@]1(O)CC[C@H]2[C@@H]3CCC4=CC(=O)CCC4=C3[C@@H](c3ccc(N(C)C)cc3)C[C@@]21C` [RU-486, 11-(4-Dimethylamino-phenyl)-17-hydroxy-13-methyl-17-prop-1-ynyl-1,2,6,7,8,11,12,13,14,15,16,17-dodecahydro-cyclopenta[α]phenanthren-3-one] the “% total apoptosis” value ([1]; Dexamethasone 10^−8 M + reference compound 10^−6 M, 4 h at 37° C.) was 35.50%.
